Measurements from PubChem BioAssay AID248 (DTP/NCI, 2004).
Values joined by “and” are separate entries in the source; they are usually repeats but may differ in a detail not shown here. Equal entries are not always repeated. Toxic doses and inconclusive results are not listed.

Test system: L1210 leukemia ip in BDF1 mice, survival T/C
Test: NCI In Vivo Anticancer Drug Screen. Data for tumor model L1210 Leukemia (intraperitoneal) in B6D2F1 (BDF1) mice
Conditions: endpoint: mean survival time, higher = longer survival
Procedure, shortened: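 Tumor cells were implanted, animals were treated, and survival was followed. The result divides the treated measurement by the vehicle-control measurement.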

[1] = dose: 100.0 mg/kg/injection, schedule: Q01DX009 (ip), vehicle: saline
[2] = dose: 100.0 mg/kg/injection, schedule: Q04DX003 (ip), vehicle: Klucel (hydroxypropylcellulose) (HPC)
[3] = dose: 200.0 mg/kg/injection, schedule: Q04DX003 (ip), vehicle: Klucel (hydroxypropylcellulose) (HPC)
[4] = dose: 100.0 mg/kg/injection, schedule: Q01DX001 (ip), vehicle: carboxymethylcellulose (CMC)
[5] = dose: 200.0 mg/kg/injection, schedule: Q01DX001 (ip), vehicle: carboxymethylcellulose (CMC)
[6] = dose: 400.0 mg/kg/injection, schedule: Q01DX001 (ip), vehicle: carboxymethylcellulose (CMC)
[7] = dose: 100.0 mg/kg/injection, schedule: Q01DX001 (ip), vehicle: saline
[8] = dose: 200.0 mg/kg/injection, schedule: Q01DX001 (ip), vehicle: saline
[9] = dose: 400.0 mg/kg/injection, schedule: Q01DX001 (ip), vehicle: saline
[10] = dose: 100.0 mg/kg/injection, schedule: Q01DX009 (ip), vehicle: saline with Tween-80
[11] = dose: 100.0 mg/kg/injection, schedule: Q04DX003 (ip), vehicle: saline
[12] = dose: 200.0 mg/kg/injection, schedule: Q01DX009 (ip), vehicle: saline with Tween-80
[13] = dose: 200.0 mg/kg/injection, schedule: Q04DX003 (ip), vehicle: saline
[14] = dose: 400.0 mg/kg/injection, schedule: Q01DX009 (ip), vehicle: saline with Tween-80
[15] = dose: 400.0 mg/kg/injection, schedule: Q04DX003 (ip), vehicle: saline
[16] = dose: 400.0 mg/kg/injection, schedule: Q01DX009 (ip), vehicle: Klucel (hydroxypropylcellulose) (HPC)
[17] = dose: 400.0 mg/kg/injection, schedule: Q04DX003 (ip), vehicle: Klucel (hydroxypropylcellulose) (HPC)
[18] = dose: 100.0 mg/kg/injection, schedule: Q01DX001 (ip), vehicle: saline with Tween-80
[19] = dose: 200.0 mg/kg/injection, schedule: Q01DX001 (ip), vehicle: saline with Tween-80
[20] = dose: 400.0 mg/kg/injection, schedule: Q01DX001 (ip), vehicle: saline with Tween-80

Compound: O=C(O)C1C(C(=O)O)C2(Cl)C(Cl)=C(Cl)C1(Cl)C2(Cl)Cl.[Mn] (centres undefined)
- T/C (dose: 44.0 mg/kg/injection, schedule: Q01DX009 (ip), vehicle: saline): 107 % of control
- T/C (dose: 50.0 mg/kg/injection, schedule: Q01DX009 (ip), vehicle: saline sonified): 114 % of control
- T/C (dose: 66.0 mg/kg/injection, schedule: Q01DX009 (ip), vehicle: saline): 105 % of control
- T/C [1]: 105 % of control
- T/C [2]: 97 % of control
- T/C (dose: 150.0 mg/kg/injection, schedule: Q01DX009 (ip), vehicle: saline): 112 % of control
- T/C (dose: 200.0 mg/kg/injection, schedule: Q01DX009 (ip), vehicle: saline sonified): 104 % of control
- T/C [3]: 95 % of control

Compound: CN(C)C(=N)[Se]
- T/C (dose: 6.25 mg/kg/injection, schedule: Q01DX009 (ip), vehicle: saline): 97 % of control
- T/C (dose: 12.5 mg/kg/injection, schedule: Q01DX009 (ip), vehicle: saline): 92 % of control

Compound: CN(C)C=Nc1ccc(F)cc1
- T/C (dose: 50.0 mg/kg/injection, schedule: Q01DX001 (ip), vehicle: carboxymethylcellulose (CMC)): 94 % of control
- T/C [4]: 102 % of control
- T/C [5]: 104 % of control
- T/C [6]: 105 % of control

Compound: CCCNC(=O)/C=C\C(=O)O
- T/C [7]: 108 % of control
- T/C [1]: 93 % of control
- T/C [8]: 101 % of control
- T/C (dose: 200.0 mg/kg/injection, schedule: Q01DX009 (ip), vehicle: saline): 90 % of control
- T/C [9]: 106 % of control
- T/C (dose: 400.0 mg/kg/injection, schedule: Q01DX009 (ip), vehicle: saline): 95 % of control

Compound: N#CCCN1CCCC(=O)NC1=O
- T/C [10]: 103 % of control
- T/C [11]: 105 % of control
- T/C [12]: 94 % of control
- T/C [13]: 103 % of control
- T/C [14]: 97 % of control
- T/C [15]: 100 % of control

Compound: O=C(CNC(=O)NCc1ccco1)N/N=C/c1ccc(Cl)c(Cl)c1
- T/C (dose: 50.0 mg/kg/injection, schedule: Q01DX009 (ip), vehicle: Klucel (hydroxypropylcellulose) (HPC)): 89 % of control
- T/C (dose: 100.0 mg/kg/injection, schedule: Q01DX009 (ip), vehicle: Klucel (hydroxypropylcellulose) (HPC)): 86 % of control and 88 % of control
- T/C [16]: 90 % of control

Compound: Cc1cccc(NC(=O)Nc2cccc(C(F)(F)F)c2)c1
- T/C [4]: 97 % of control
- T/C [5]: 101 % of control
- T/C [6]: 97 % of control

Compound: Cc1ccc(NC(=O)Nc2cccc3ccccc23)c(C)c1
- T/C [2]: 91 % of control
- T/C (dose: 200.0 mg/kg/injection, schedule: Q01DX009 (ip), vehicle: Klucel (hydroxypropylcellulose) (HPC)): 88 % of control
- T/C [3]: 95 % of control
- T/C [16]: 92 % of control
- T/C [17]: 91 % of control

Compound: Cc1ccc(S(=O)(=O)/N=S(\CCCl)CCc2ccccc2)cc1 (centres undefined)
- T/C [2]: 97 % of control
- T/C [3]: 97 % of control
- T/C [17]: 90 % of control

Compound: CCCC(CCC)NC(=O)c1ccccc1
- T/C (dose: 25.0 mg/kg/injection, schedule: Q04DX002 (ip), vehicle: saline with Tween-80): 104 % of control
- T/C (dose: 50.0 mg/kg/injection, schedule: Q04DX002 (ip), vehicle: saline with Tween-80): 95 % of control
- T/C (dose: 100.0 mg/kg/injection, schedule: Q04DX002 (ip), vehicle: saline with Tween-80): 95 % of control

Compound: Cc1cc(=O)cc(C)n1C
- T/C [10]: 96 % of control
- T/C [12]: 100 % of control
- T/C [14]: 92 % of control

Compound: C=C(C)Cn1cnc2c1c(=O)n(C)c(=O)n2C
- T/C [11]: 103 % of control
- T/C [13]: 98 % of control
- T/C [15]: 89 % of control

Compound: CCC/C=C(\C)CCCC
- T/C [7]: 97 % of control
- T/C [8]: 99 % of control
- T/C [9]: 95 % of control

Compound: COC(=O)c1ccc(=O)c2nc3/c(=C/O)c(O)cc(=O)c3[nH]c12
- T/C (dose: 23.0 micrograms/kg/injection, schedule: Q01DX001 (ip), vehicle: acetone): 90 % of control
- T/C (dose: 23.0 micrograms/kg/injection, schedule: Q01DX009 (ip), vehicle: saline): 100 % of control
- T/C (dose: 23.0 micrograms/kg/injection, schedule: Q04DX003 (ip), vehicle: saline): 110 % of control
- T/C (dose: 47.0 micrograms/kg/injection, schedule: Q01DX001 (ip), vehicle: acetone): 93 % of control
- T/C (dose: 47.0 micrograms/kg/injection, schedule: Q01DX009 (ip), vehicle: saline): 113 % of control
- T/C (dose: 47.0 micrograms/kg/injection, schedule: Q04DX003 (ip), vehicle: saline): 97 % of control
- T/C (dose: 95.0 micrograms/kg/injection, schedule: Q01DX001 (ip), vehicle: acetone): 92 % of control
- T/C (dose: 95.0 micrograms/kg/injection, schedule: Q04DX003 (ip), vehicle: saline): 101 % of control

Compound: CCOC(=O)C1(C2=NC(C)(C)CC(C)O2)CCCCC1 (centres undefined)
- T/C (dose: 100.0 mg/kg/injection, schedule: Q01DX009 (ip), vehicle: other): 102 % of control
- T/C (dose: 200.0 mg/kg/injection, schedule: Q01DX009 (ip), vehicle: other): 100 % of control
- T/C (dose: 400.0 mg/kg/injection, schedule: Q01DX009 (ip), vehicle: other): 107 % of control

Compound: O=C1NC(c2ccccc2)(c2ccccc2)CN1CCO
- T/C [18]: 95 % of control
- T/C [19]: 95 % of control
- T/C [20]: 93 % of control

Compound: O=C(CCl)NCCO
- T/C [11]: 108 % of control
- T/C [13]: 90 % of control
- T/C [15]: 104 % of control

Compound: O=C(CCN1CC1)Nc1cccc(NC(=O)CCN2CC2)c1
- T/C (dose: 2.5 mg/kg/injection, schedule: Q01DX001 (ip), vehicle: Klucel (hydroxypropylcellulose) (HPC)): 112 % of control
- T/C (dose: 40.0 mg/kg/injection, schedule: Q01DX001 (ip), vehicle: Klucel (hydroxypropylcellulose) (HPC)): 153 % of control

Compound: CC(C)(C)NS(=O)(=O)/C=C/c1ccccc1
- T/C (dose: 50.0 mg/kg/injection, schedule: Q01DX009 (ip), vehicle: acetone): 95 % of control
- T/C (dose: 100.0 mg/kg/injection, schedule: Q01DX001 (ip), vehicle: acetone): 101 % of control
- T/C (dose: 100.0 mg/kg/injection, schedule: Q01DX009 (ip), vehicle: acetone): 93 % of control
- T/C (dose: 200.0 mg/kg/injection, schedule: Q01DX001 (ip), vehicle: acetone): 102 % of control
- T/C (dose: 200.0 mg/kg/injection, schedule: Q01DX009 (ip), vehicle: acetone): 92 % of control
- T/C (dose: 400.0 mg/kg/injection, schedule: Q01DX001 (ip), vehicle: acetone): 96 % of control

Compound: CCOc1ccc(NC(=O)Nc2ccccc2Cl)cc1
- T/C (dose: 6.0 mg/kg/injection, schedule: Q01DX009 (ip), vehicle: Klucel (hydroxypropylcellulose) (HPC)): 93 % of control
- T/C (dose: 12.0 mg/kg/injection, schedule: Q01DX009 (ip), vehicle: Klucel (hydroxypropylcellulose) (HPC)): 88 % of control
- T/C (dose: 25.0 mg/kg/injection, schedule: Q01DX009 (ip), vehicle: Klucel (hydroxypropylcellulose) (HPC)): 97 % of control
- T/C (dose: 25.0 mg/kg/injection, schedule: Q01DX009 (ip), vehicle: gum acacia): 89 % of control
- T/C (dose: 200.0 mg/kg/injection, schedule: Q01DX009 (ip), vehicle: gum acacia): 91 % of control
- T/C (dose: 200.0 mg/kg/injection, schedule: Q04DX003 (ip), vehicle: gum acacia): 92 % of control
- T/C (dose: 400.0 mg/kg/injection, schedule: Q04DX003 (ip), vehicle: gum acacia): 90 % of control

Compound: O=C(CNC(=O)NCc1ccccc1)NNC(=O)Nc1cccc(C(F)(F)F)c1
- T/C (dose: 50.0 mg/kg/injection, schedule: Q01DX009 (ip), vehicle: saline with Tween-80): 102 % of control
- T/C [10]: 87 % of control
- T/C [12]: 91 % of control

Compound: O=C(O)c1ccc[nH]c1=O
- T/C [18]: 97 % of control
- T/C [19]: 95 % of control
- T/C [20]: 98 % of control

Compound: S=C([S][Sn]([c]1ccccc1)([c]1ccccc1)[c]1ccccc1)N(c1ccccc1)c1ccccc1
- T/C (dose: 100.0 mg/kg/injection, schedule: Q01DX001 (ip), vehicle: steriod suspending solution): 89 % of control
- T/C (dose: 200.0 mg/kg/injection, schedule: Q01DX001 (ip), vehicle: steriod suspending solution): 98 % of control
- T/C (dose: 400.0 mg/kg/injection, schedule: Q01DX001 (ip), vehicle: steriod suspending solution): 104 % of control

Compound: Cc1cc(=O)n(-c2ccc(N)cc2)n1C
- T/C [2]: 100 % of control
- T/C [3]: 100 % of control
- T/C [17]: 101 % of control

Compound: O=C(c1ccc(OC(F)F)cc1)N1CCCCC1
- T/C [2]: 94 % of control
- T/C [3]: 93 % of control
- T/C [17]: 96 % of control
